According to ChEMBL document CHEMBL5729119, “Aliphatic acid amide derivative” (2022):

Columns and labels:
[1] = target: 5-hydroxytryptamine receptor 7 (Homo sapiens, UniProt P34969); assay: Binding Activity Assay: Human 5-HT2A Receptor, Human 5-HT7 Receptor, and Human D2 Receptor: Binding affinity of the present compound for human 5-HT2A receptor, human 5-HT7 receptor, and human D2 receptor was measured by the following procedures.CHO cell membrane fraction in which human 5-HT2A receptor, human 5-HT7 receptor, or human D2 receptor was expressed was purchased from PerkinElmer, Inc. …
Description: (§1) Each mixture was incubated at room temperature for 60 minutes. Non specific binding to receptors was obtained from a competitive binding test in the presence of 10 μmol/L 8-OH-DPAT, 10 μmol/L Mianserin, or 10 μmol/L Spiperone, respectively.

D(2) dopamine receptor = D(2) dopamine receptor (Homo sapiens, UniProt P14416); assay: as above
Sequence of D(2) dopamine receptor (P14416 whole entry): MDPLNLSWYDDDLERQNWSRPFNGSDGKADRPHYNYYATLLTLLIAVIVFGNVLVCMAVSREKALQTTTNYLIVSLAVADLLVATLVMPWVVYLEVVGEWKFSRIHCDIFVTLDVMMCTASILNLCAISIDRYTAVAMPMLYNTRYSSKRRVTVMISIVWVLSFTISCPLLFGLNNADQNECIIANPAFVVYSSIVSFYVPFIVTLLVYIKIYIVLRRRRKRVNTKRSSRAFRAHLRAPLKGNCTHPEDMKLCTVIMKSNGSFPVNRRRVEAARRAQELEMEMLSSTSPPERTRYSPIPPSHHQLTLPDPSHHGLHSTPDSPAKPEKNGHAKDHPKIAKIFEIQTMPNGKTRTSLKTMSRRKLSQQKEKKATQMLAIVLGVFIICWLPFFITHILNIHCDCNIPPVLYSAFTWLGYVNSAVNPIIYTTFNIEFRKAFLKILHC
Description: as §1

Sequence of 5-hydroxytryptamine receptor 7 (P34969 whole entry): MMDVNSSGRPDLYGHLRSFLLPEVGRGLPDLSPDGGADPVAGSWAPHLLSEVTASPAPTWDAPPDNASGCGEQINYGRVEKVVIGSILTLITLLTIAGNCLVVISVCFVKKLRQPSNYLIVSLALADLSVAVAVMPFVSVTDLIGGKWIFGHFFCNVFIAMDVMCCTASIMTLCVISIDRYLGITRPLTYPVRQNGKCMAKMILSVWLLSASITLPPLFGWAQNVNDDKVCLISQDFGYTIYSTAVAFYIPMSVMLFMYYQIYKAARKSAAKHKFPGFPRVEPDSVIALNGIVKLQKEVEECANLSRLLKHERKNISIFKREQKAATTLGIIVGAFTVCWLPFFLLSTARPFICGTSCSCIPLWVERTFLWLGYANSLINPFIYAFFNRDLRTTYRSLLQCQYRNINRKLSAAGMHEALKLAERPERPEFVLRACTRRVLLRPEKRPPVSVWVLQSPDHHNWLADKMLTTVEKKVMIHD

With CCN(CCN1CCC(c2noc3cc(F)c(C)cc23)CC1)C(=O)[C@H](C)O the Ki [1] was 20.3 nM and the Ki (D(2) dopamine receptor) was > 1000 nM.
Molecule CCN(CCN1CCC(c2noc3cc(F)ccc23)CC1)C(=O)CCO has a Ki [1] of 4.9 nM and a Ki (D(2) dopamine receptor) of 155 nM.
With CCN(CCN1CCC(c2noc3cc(F)ccc23)CC1)C(=O)C1(O)CC1 the Ki [1] was 1.1 nM and the Ki (D(2) dopamine receptor) was < 100 nM.
